Experimental data taken from patent US20100197765A1, “METHOD FOR PROMOTING THE EXPRESSION OF P53, AND P53 EXPRESSION PROMOTER FOR USE IN THE METHOD” (THE UNIVERSITY OF TOKUSHIMA, priority 2007, published 2010).

Legend:
vegf IresRNA = vegf IresRNA by Northern blotting in siRNA-transfected HCT116 cells; type: cell-based, human; settings: HCT116, 18 hours after transfection, vs control cells
Method: (§1) Whether or not vegf siRNA promotes the apoptosis sensitivity of cells was examined. In the same manner as in Example A1 except that HCT116 cells (parent cells, wild-type p53) were used instead of the HepG2 cells (wild-type p53), the vegf siRNA #1 vectors expressing siRNA #1, the vegf siRNA #2 vectors expressing siRNA #2, and the control siRNA vectors described above were respectively transfected into the HCT116 cells (parent cells, wild-type p53). Then, with regard to the cells after 18 hours from the transfection, the expression levels of vegf mRNA and gapdh mRNA were analyzed by quantitative RT-PCR (means±SD, n=4) and the expression levels of vegf IresRNA and gapdh mRNA were analyzed by Northern blotting. Also, with regard to HCT116 cells not transfected with the above-described recombinant vectors, the analyses were conducted in the same manner. The quantitative RT-PCR was conducted in the same manner as in Example B1, except that a primer set for vegf mRNA was used.

vegf mRNA [1] = assay: vegf mRNA expression by Northern blotting in HepG2 cells expressing vegf siRNA; type: cell-based, human; settings: HepG2, 18 hours after vector transfection, vs untransfected and control siRNA cells
Method: Total RNAs were extracted according to a guanidine thiocyanate method. Labeled cDNAs were produced using the following antisense primers, a klenow fragment (New England BioLabs, Inc., Inc.), and [α^−32P]dCTP, with the following cDNAs being templates. Thus obtained labeled cDNAs were used as probes for the Northern blotting.
The vegf siRNA #1 vectors, the vegf siRNA #2 vectors, and the control siRNA vectors were transfected into HepG2 cells (wild-type p53). These cells were cultured for 18 hours, and the expression level of vegf mRNA was analyzed by the Northern blotting. Also, with respect to the HepG2 cells not transfected with the vectors, the analysis was performed in the same manner. At the time of analysis, gapdh mRNA in each type of the cells was monitored as a loading control (hereinafter, the same applies). The cells were cultured using DMEM medium containing 10% fetal bovine serum and 100 μg/ml (100 units/ml) of streptomycin under the condition of 37° C. and 5% CO2 (hereinafter, the same applies).

vegf mRNA [2] = assay: vegf mRNA by quantitative RT-PCR in siRNA-transfected HCT116 cells; type: cell-based, human; settings: HCT116, 18 hours after transfection, ratio to gapdh mRNA
Method: From 1 μg of total RNA, cDNA was synthesized using SuperScriptII RNaseH(−) reverse transcriptase (Invitrogen), and PCR was performed using primers for amplification-purpose nucleic sequences with the cDNA being a template. The amplification and the quantitative analysis of PCR products were performed using Applied Biosystems 7500 (Applied Biosystems) by the method recommended by the manufacturer.
as §1

HCT116 cell strain = assay: tumor volume of si-vegf #1 HCT116 cell strain xenografted to nude mice; type: in vivo; settings: si-vegf #1 cells vs si-Control cells, subcutaneous, n=5
Excerpt: With regard to cells expressing siRNA against vegf, the effect thereof on the tumorigenicity in vivo was examined. Vegf siRNA #1 vectors expressing the above-described siRNA #1 were transfected into a HCT116 cell strain (wild-type p53) derived from human large bowel cancer, and the transfected cells were selected with an antibiotic blasticidin. The thus-obtained cell clone hereinafter is referred to as a si-vegf #1 cell strain. As a control, pcDNA6.2-GW/EmGFP-miR vectors (Invitrogen) to which a double-stranded oligonucleotide with a sequence (SEQ ID NO. 46: 5′-[…]-3′) having no homology to known vertebrate genes had been inserted were used (control siRNA vectors) as in the above. The […] cell strain was transfected with these control siRNA vectors in the same manner as in the above, and the transfected cells were selected with the antibiotic. The thus-obtained cell clone hereinafter is referred to as a si-Control cell strain. Then, the si-vegf #1 cell strain and the si-Control cell strain respectively were xenografted subcutaneously to femoral regions of nude mice, and the volume of the formed tumor was measured after the predetermined time (each n=5) in the same manner as in Example C2.

[3] = tested on: noxa mRNA, puma mRNA, and p21 mRNA; assay: expression of mRNAs induced in p53 pathways in HepG2 cells (Northern); type: cell-based, human; settings: HepG2, 5-FU 30 μmol/L, 16 hours
Method: In the same manner, HepG2 cells transfected with each type of the vectors were treated for 16 hours in the presence of 5-FU (30 μmol/L) (+) or the absence of 5-FU (−). With respect to the treated cells, expression of noxa mRNA, puma mRNA, and p21 mRNA induced in p53 pathways was analyzed by the Northern blotting. […] In FIG. 1D, the first row from the top indicates expression of noxa mRNA, the second row indicates expression of puma mRNA, the third row indicates expression of p21 mRNA, and the fourth row indicates expression of gapdh mRNA. Definitions of the lanes in FIG. 1D are the same as those of FIG. 1C.

bax mRNA and noxa mRNA = assay: bax and noxa mRNA by quantitative RT-PCR in siRNA-transfected HCT116 cells; type: cell-based, human; settings: HCT116, 5-FU 80 μmol/L, 24 hours, vs control
Method: Whether or not the increase in the 5-FU-induced expression of p53 mRNA caused by the knockdown of vegf IresRNA by vegf siRNA induces expression of mRNA of a bax gene or a noxa gene, which are both p53 target genes, was examined. Cells obtained by transfecting the same control siRNA vectors, vegf siRNA #1 vectors, or vegf siRNA #2 vectors as in the above into parent cells HCT116 were treated for 24 hours in the presence of 80 μmol/L of 5-FU (+) or in the absence of 5-FU (−). Thereafter, expressions of bax mRNA and noxa mRNA were analyzed by quantitative RT-PCR (means±SD, n=4).

Substance	amount of the expressed vegf IresRNA (vegf IresRNA)	expression amount of vegf mRNA (vegf mRNA [1])	amount of the vegf mRNA expressed (vegf mRNA [2])	tumor formation and tumor growth (HCT116 cell strain)	expression induction of noxa mRNA, puma mRNA, and p21 mRNA [3]	induction of the expressions of bax mRNA and noxa mRNA by 5-FU (bax mRNA and noxa mRNA)
siRNA #1: siRNA against vegf mRNA, SEQ ID NO 3/4, antisense complementary to bases 1062-1082 in SEQ ID NO. 1; expressed from pcDNA6.2-GW/EmGFP-miR vector (sense GCAUUGGACUUGCCUUGCUNN; antisense AGCAAGGCAAGGCUCCAAUGCNN)	decreased	decreased markedly	decreased markedly	significant suppression	enhanced markedly	promoted markedly
siRNA #2: siRNA against vegf mRNA, SEQ ID NO 5/6, antisense complementary to bases 1067-1087 in SEQ ID NO. 1; vector-expressed (sense GGAGCCUUGUUGCUGCUCUNN; antisense AGAGCAGCAAGGCAAGGCUCCNN)	decreased markedly	decreased markedly	decreased markedly	–	enhanced markedly	promoted markedly
